The data set concerns dorsal shaved skin. Kind of data set: Rat seven-day intracutaneous skin thinning test (skin thinning and systemic effects). The class given is in vivo, rat (male, strain CFHB). Particulars: for Final body weight / Combined adrenal weight / Thymus weight / Spleen weight / Treated skin weight: mean; for Final body weight: 8 mg intracutaneous (16×0.5 mg), autopsy seven days later, initial body weight 200±3 g, control 249; for Combined adrenal weight / Thymus weight / Spleen weight / Treated skin weight: 8 mg intracutaneous, seven days; for Combined adrenal weight: control 41.5; for Thymus weight: control 612; for Spleen weight: control 788; for Treated skin weight: 4×4 cm area of treated skin, control 1.630; for systemic effects: conclusion in words. The protocol:
Male rats strain CFHB, initial body weight 200±3 g, were used in the experiment and divided in seven groups each containing 10 animals, six groups being used for testing the compounds a-f and the seventh group serving as controls.
Each anaesthetised animal in each group received 8 mg of the respective compound injected as 16×0.5 mg suspended in 0.05 ml of suspension fluid into a 4×4 cm area of dorsal shaved skin. […]
At autopsy seven days later the spleen, adrenals, thymus and body weight were recorded in addition to the 4×4 cm area of treated skin. Table B summarises the means of the results.

The text below walks through data of patent US4260605A, “Novel alkylated pregnanes, processes for their preparation and pharmaceutical compositions containing same” (Akzo N.V., priority 1979, dated 1981).

Structures are written as SMILES.

Regarding `CCCC(=O)O[C@]1(C(=O)CC)CC[C@H]2[C@@H]3CCC4=CC(=O)CC[C@]4(C)[C@H]3[C@@H](O)C[C@@]21C` [b, 11β,17dihydroxy-21-methyl-Δ^4pregnene-3,20-dione 17n-butyrate], the Final body weight is 249 g, the Combined adrenal weight stood at 36.3 mg, the Thymus weight is 533 mg and the Spleen weight is on record as 727 mg. For the same compound, the Treated skin weight is recorded as 1.660 g.

On to `CCCCC(=O)O[C@]1(C(=O)CO)[C@@H](C)C[C@H]2[C@@H]3CCC4=CC(=O)C=C[C@]4(C)[C@@]3(F)[C@@H](O)C[C@@]21C` [f, betamethasone 17valerate], for which the systemic effects result is listed as “have systemic effects”, the Final body weight came to 229 g, the Combined adrenal weight was 21.5 mg and the Thymus weight was found to be 96 mg. The Spleen weight is 445 mg and the Treated skin weight was 1.445 g.

Turning to `CCCC(=O)O[C@]1(C(=O)CO)CC[C@H]2[C@@H]3CCC4=CC(=O)CC[C@]4(C)[C@H]3[C@@H](O)C[C@@]21C` [g, hydrocortisone 17n-butyrate], the systemic effects entry is reported as “have systemic effects”, the Final body weight is 227 g, the Combined adrenal weight was 34.7 mg and the Thymus weight came to 96 mg. In addition, the Spleen weight is reported as 503 mg and the Treated skin weight is 1.410 g.

On to `CC1(C)O[C@@H]2C[C@H]3[C@@H]4CCC5=CC(=O)C=C[C@]5(C)[C@@]4(F)[C@@H](O)C[C@]3(C)[C@]2(C(=O)CO)O1` [h, triamcinolone acetonide], for which the systemic effects result is “have systemic effects”, the Final body weight came out at 142 g, the Combined adrenal weight stood at 17.4 mg and the Thymus weight is given as 65 mg. Also, the Spleen weight stood at 150 mg and the Treated skin weight was 1.107 g.
